Experimental data as given in BindingDB's records for doi:10.1016/s0960-894x(00)00161-x (University of Tokyo, 2000).

Experiment: Inhibition of Beta-glucosidase activity.

SMILES	IC50
O=C1c2c(Cl)c(Cl)c(Cl)c(Cl)c2C(=O)N1CCCc1ccccc1 [4,5,6,7-Tetrachloro-2-(3-phenyl-propyl)-isoindole-1,3-dione]	> 500 µM
O=C1c2c(Cl)c(Cl)c(Cl)c(Cl)c2C(=O)N1CCCCCc1ccccc1 [4,5,6,7-Tetrachloro-2-(5-phenyl-pentyl)-isoindole-1,3-dione]	> 500 µM
O=C1c2c(Cl)c(Cl)c(Cl)c(Cl)c2C(=O)N1CCCCCCc1ccccc1 [4,5,6,7-Tetrachloro-2-(6-phenyl-hexyl)-isoindole-1,3-dione]	> 500 µM
O=C1c2c(Cl)c(Cl)c(Cl)c(Cl)c2C(=O)N1CCc1ccccc1 [4,5,6,7-Tetrachloro-2-phenethyl-isoindole-1,3-dione]	> 500 µM
O=C1c2c(Cl)c(Cl)c(Cl)c(Cl)c2C(=O)N1CCCCc1ccccc1 [4,5,6,7-tetrachloro-2-(4-phenylbutyl)isoindoline-1,3-dione]	> 500 µM
O=C1c2cccc(O)c2C(=O)N1c1ccccc1 [4-Hydroxy-2-phenyl-isoindole-1,3-dione]	> 500 µM
Nc1ccc2c(c1)C(=O)N(c1ccccc1)C2=O [5-Amino-2-phenyl-isoindole-1,3-dione]	> 500 µM
O=C1c2ccc([N+](=O)[O-])cc2C(=O)N1c1ccccc1 [5-Nitro-2-phenyl-isoindole-1,3-dione]	> 500 µM
O=C1c2ccc(O)cc2C(=O)N1c1ccccc1 [5-hydroxy-2-phenylisoindoline-1,3-dione]	> 500 µM

Continued, values first:

IC50	SMILES
> 500 µM	O=C1c2cccc([N+](=O)[O-])c2C(=O)N1c1ccccc1
> 500 µM	O=C1c2ccccc2C(=O)N1CCCc1ccccc1 [2-(3-Phenyl-propyl)-isoindole-1,3-dione]
> 500 µM	O=C1c2c(Cl)c(Cl)c(Cl)c(Cl)c2C(=O)N1Cc1ccccc1 [2-Benzyl-4,5,6,7-tetrachloro-isoindole-1,3-dione]
> 500 µM	O=C1c2ccccc2C(=O)N1CCc1ccccc1 [2-Phenethyl-isoindole-1,3-dione]
> 500 µM	O=C1c2ccccc2C(=O)N1c1ccccc1 [2-Phenyl-isoindole-1,3-dione]
